Measurements: US8192962B2, “Processes for detecting toxic substances” (Daikin Industries, Ltd., priority 2001, dated 2012)

Tested on: Unknown protein yeast genes
Test: DNA chip mRNA expression in yeast, unknown protein yeast genes (Table 1)
Assay type: cell-based, Saccharomyces cerevisiae S288C
Method in brief: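 Expression change after 2 h toxicant exposure (growth-inhibiting, sub-lethal) of log-phase S. cerevisiae S288C at 25° C. Oligo-dT-purified mRNA was labeled with Cy3-dUTP or Cy5-dUTP and hybridized >12 h at 65° C. to a genome-wide chip; ratio of scanned fluorescence to control.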

SMILES: N#Cc1c(Cl)c(Cl)c(Cl)c(C#N)c1Cl [(9), 2,4,5,6-tetrachloro-1,3-benzenedicarbonitrile]
- The level of expressed mRNA in the presence of chemical substance/The level of expressed mRNA in the absence of chemical substance (yeast gene YAL053W, incubated two hours with chemical substance): 1.4
- The level of expressed mRNA in the presence of chemical substance/The level of expressed mRNA in the absence of chemical substance (yeast gene YBL048W): 7.2
- The level of expressed mRNA in the presence of chemical substance/The level of expressed mRNA in the absence of chemical substance (yeast gene YBL107C): 1.0
- The level of expressed mRNA in the presence of chemical substance/The level of expressed mRNA in the absence of chemical substance (yeast gene YDL072C, incubated two hours with chemical substance): 1.1
- The level of expressed mRNA in the presence of chemical substance/The level of expressed mRNA in the absence of chemical substance (yeast gene YDL146W): 0.8
- The level of expressed mRNA in the presence of chemical substance/The level of expressed mRNA in the absence of chemical substance (yeast gene YDL204W, incubated two hours with chemical substance): 2.3
- The level of expressed mRNA in the presence of chemical substance/The level of expressed mRNA in the absence of chemical substance (yeast gene YDL222C, incubated two hours with chemical substance): 1.9
- The level of expressed mRNA in the presence of chemical substance/The level of expressed mRNA in the absence of chemical substance (yeast gene YDR057W): 1.5
- The level of expressed mRNA in the presence of chemical substance/The level of expressed mRNA in the absence of chemical substance (yeast gene YDR286C): 0.8
- The level of expressed mRNA in the presence of chemical substance/The level of expressed mRNA in the absence of chemical substance (yeast gene YDR330W, incubated two hours with chemical substance): 3.9
- The level of expressed mRNA in the presence of chemical substance/The level of expressed mRNA in the absence of chemical substance (yeast gene YDR391C, incubated two hours with chemical substance): 1.5
- The level of expressed mRNA in the presence of chemical substance/The level of expressed mRNA in the absence of chemical substance (yeast gene YDR411C, incubated two hours with chemical substance): 0.7
- The level of expressed mRNA in the presence of chemical substance/The level of expressed mRNA in the absence of chemical substance (yeast gene YDR511W, incubated two hours with chemical substance): 2.5
- The level of expressed mRNA in the presence of chemical substance/The level of expressed mRNA in the absence of chemical substance (yeast gene YDR545W, incubated two hours with chemical substance): 1.8
- The level of expressed mRNA in the presence of chemical substance/The level of expressed mRNA in the absence of chemical substance (yeast gene YEL001C, incubated two hours with chemical substance): 2.0
- The level of expressed mRNA in the presence of chemical substance/The level of expressed mRNA in the absence of chemical substance (yeast gene YER004W, incubated two hours with chemical substance): 4.5
- The level of expressed mRNA in the presence of chemical substance/The level of expressed mRNA in the absence of chemical substance (yeast gene YER035W, incubated two hours with chemical substance): 1.2
- The level of expressed mRNA in the presence of chemical substance/The level of expressed mRNA in the absence of chemical substance (yeast gene YER079W, incubated two hours with chemical substance): 5.3
- The level of expressed mRNA in the presence of chemical substance/The level of expressed mRNA in the absence of chemical substance (yeast gene YER106W, incubated two hours with chemical substance): 0.4
- The level of expressed mRNA in the presence of chemical substance/The level of expressed mRNA in the absence of chemical substance (yeast gene YER158C, incubated two hours with chemical substance): 2.1
- The level of expressed mRNA in the presence of chemical substance/The level of expressed mRNA in the absence of chemical substance (yeast gene YER163C, incubated two hours with chemical substance): 5.4
- The level of expressed mRNA in the presence of chemical substance/The level of expressed mRNA in the absence of chemical substance (yeast gene YER175C, incubated two hours with chemical substance): 1.9
- The level of expressed mRNA in the presence of chemical substance/The level of expressed mRNA in the absence of chemical substance (yeast gene YFL006W, incubated two hours with chemical substance): 3.2
- The level of expressed mRNA in the presence of chemical substance/The level of expressed mRNA in the absence of chemical substance (yeast gene YFL010C, incubated two hours with chemical substance): 3.1
- The level of expressed mRNA in the presence of chemical substance/The level of expressed mRNA in the absence of chemical substance (yeast gene YFL017C): 0.8
- The level of expressed mRNA in the presence of chemical substance/The level of expressed mRNA in the absence of chemical substance (yeast gene YFL024C): 0.5
- The level of expressed mRNA in the presence of chemical substance/The level of expressed mRNA in the absence of chemical substance (yeast gene YFL032W, incubated two hours with chemical substance): 0.5
- The level of expressed mRNA in the presence of chemical substance/The level of expressed mRNA in the absence of chemical substance (yeast gene YFR008W): 1.5
- The level of expressed mRNA in the presence of chemical substance/The level of expressed mRNA in the absence of chemical substance (yeast gene YGL037C, incubated two hours with chemical substance): 2.1
- The level of expressed mRNA in the presence of chemical substance/The level of expressed mRNA in the absence of chemical substance (yeast gene YGL047W, incubated two hours with chemical substance): 4.5
- The level of expressed mRNA in the presence of chemical substance/The level of expressed mRNA in the absence of chemical substance (yeast gene YGL053W, incubated two hours with chemical substance): 3.3
- The level of expressed mRNA in the presence of chemical substance/The level of expressed mRNA in the absence of chemical substance (yeast gene YGL121C): 7.0
- The level of expressed mRNA in the presence of chemical substance/The level of expressed mRNA in the absence of chemical substance (yeast gene YGR101W, incubated two hours with chemical substance): 4.0
- The level of expressed mRNA in the presence of chemical substance/The level of expressed mRNA in the absence of chemical substance (yeast gene YGR110W): 6.4
- The level of expressed mRNA in the presence of chemical substance/The level of expressed mRNA in the absence of chemical substance (yeast gene YGR130C, incubated two hours with chemical substance): 2.0
- The level of expressed mRNA in the presence of chemical substance/The level of expressed mRNA in the absence of chemical substance (yeast gene YGR154C, incubated two hours with chemical substance): 25.2
- The level of expressed mRNA in the presence of chemical substance/The level of expressed mRNA in the absence of chemical substance (yeast gene YHL042W): 0.8
- The level of expressed mRNA in the presence of chemical substance/The level of expressed mRNA in the absence of chemical substance (yeast gene YHR138C, incubated two hours with chemical substance): 5.3
- The level of expressed mRNA in the presence of chemical substance/The level of expressed mRNA in the absence of chemical substance (yeast gene YHR199C, incubated two hours with chemical substance): 8.6
- The level of expressed mRNA in the presence of chemical substance/The level of expressed mRNA in the absence of chemical substance (yeast gene YIL023C, incubated two hours with chemical substance): 3.5
- The level of expressed mRNA in the presence of chemical substance/The level of expressed mRNA in the absence of chemical substance (yeast gene YIL024C, incubated two hours with chemical substance): 2.2
- The level of expressed mRNA in the presence of chemical substance/The level of expressed mRNA in the absence of chemical substance (yeast gene YIL041W, incubated two hours with chemical substance): 1.8
- The level of expressed mRNA in the presence of chemical substance/The level of expressed mRNA in the absence of chemical substance (yeast gene YIL087C, incubated two hours with chemical substance): 2.4
- The level of expressed mRNA in the presence of chemical substance/The level of expressed mRNA in the absence of chemical substance (yeast gene YIL117C, incubated two hours with chemical substance): 2.3
- The level of expressed mRNA in the presence of chemical substance/The level of expressed mRNA in the absence of chemical substance (yeast gene YJL057C, incubated two hours with chemical substance): 7.3
- The level of expressed mRNA in the presence of chemical substance/The level of expressed mRNA in the absence of chemical substance (yeast gene YJL066C, incubated two hours with chemical substance): 2.0
- The level of expressed mRNA in the presence of chemical substance/The level of expressed mRNA in the absence of chemical substance (yeast gene YJL082W, incubated two hours with chemical substance): 1.4
- The level of expressed mRNA in the presence of chemical substance/The level of expressed mRNA in the absence of chemical substance (yeast gene YJL108C, incubated two hours with chemical substance): 0.3
- The level of expressed mRNA in the presence of chemical substance/The level of expressed mRNA in the absence of chemical substance (yeast gene YJL151C, incubated two hours with chemical substance): 0.5
- The level of expressed mRNA in the presence of chemical substance/The level of expressed mRNA in the absence of chemical substance (yeast gene YJL152W, incubated two hours with chemical substance): 0.3
- The level of expressed mRNA in the presence of chemical substance/The level of expressed mRNA in the absence of chemical substance (yeast gene YJL161W, incubated two hours with chemical substance): 3.1
- The level of expressed mRNA in the presence of chemical substance/The level of expressed mRNA in the absence of chemical substance (yeast gene YJL171C, incubated two hours with chemical substance): 1.0
- The level of expressed mRNA in the presence of chemical substance/The level of expressed mRNA in the absence of chemical substance (yeast gene YJR008W, incubated two hours with chemical substance): 1.8
- The level of expressed mRNA in the presence of chemical substance/The level of expressed mRNA in the absence of chemical substance (yeast gene YKL065C): 3.1
- The level of expressed mRNA in the presence of chemical substance/The level of expressed mRNA in the absence of chemical substance (yeast gene YKL071W): 162.2
- The level of expressed mRNA in the presence of chemical substance/The level of expressed mRNA in the absence of chemical substance (yeast gene YKL086W, incubated two hours with chemical substance): 8.2
- The level of expressed mRNA in the presence of chemical substance/The level of expressed mRNA in the absence of chemical substance (yeast gene YKL147C): 1.0
- The level of expressed mRNA in the presence of chemical substance/The level of expressed mRNA in the absence of chemical substance (yeast gene YKL151C, incubated two hours with chemical substance): 3.3
- The level of expressed mRNA in the presence of chemical substance/The level of expressed mRNA in the absence of chemical substance (yeast gene YKL153W, incubated two hours with chemical substance): 0.8
